Measured values taken from US12097172B2, “Prevention and treatment of diabetic nephropathy” (THE CHILDREN'S MEDICAL CENTER CORPORATION, priority 2016, dated 2024).
Counter-ions that a name gives are not always drawn.

How the values were obtained:
CXCR1 and CXCR2 = conditions: mice; cited from earlier work
db/db mice = assay: KC/CXCR2 axis blockade with Reparixin in db/db diabetic mice (urinary albumin excretion, glycemia, kidney histopathology); format: in vivo
Description: Kidneys from db/db mice at 8, 12 and 25 weeks of age were surgically removed using standard techniques. To perform standard light microscopy, kidneys were fixed in 4% buffered paraformaldehyde (PFA), dehydrated, and paraffin-embedded. AxioVision software 4.3 was used to record the images from Periodic Acid Schiff (PAS) and Trichrome staining. The evaluation of mesangial matrix was electronically performed using a macro built on the AxioVision analysis module (Carl Zeiss Spa, Thornwood, NY). Glomeruli were identified as a region of interest (ROI) and mesangium was highlighted by a color threshold protocol. Binary images were then produced and mesangium was automatically calculated as percentage of the glomerular area. Image acquisition was performed with a Zeiss Axioscope 40FL microscope and AxioCam MRc5 digital video camera (Carl Zeiss SpA). AxioVision software 4.3 was used to record images and AxioVision analysis module to analyze the results (Carl Zeiss SpA). In order to assess the potential role of IL8 blockade in DN progression, 7 weeks old db/db mice were treated with Reparixin 15 mg/kg (ip) twice a day for 18 weeks (up to 25 weeks of age). Briefly, animals were housed in metabolic cages (Nalgene) to separate feces and urine within a light-controlled environment and provided with water ad-libitum. Sample collection tubes passed below the cages and through small holes in the bottom of the light controlled environment. Urine samples from db/db mice were collected through a metabolic cage at week 8, 12, and 25. The BeadLyte Mouse Multi-cytokine Beadmaster Kit (Millipore, Billerica, MA) was used according to the manufacturer's protocol to determine cytokine levels of IL8. Briefly, the supernatant was incubated with beads conjugated to the IL8 alone for a specified amount of time, and then with biotinylated reporters and streptavidin-phycoerythrin solution for 30 min. A Luminex100 reader (Luminex Corporation, Austin, TX) was used to measure the sample cytokine level. All in vitro and in vivo experimental data presented herein in the examples were performed in triplicate, unless indicated otherwise. Proteinuria in db/db mice was performed in 10 untreated and 30 treated animals. Prism statistical software (La Jolla, CA—USA) was used for data analysis. […] For discrete variables, χ^2 test was used. For all tests, p<0.05 was considered significant.

Human podocyte cells = assay: IL8 challenge of human podocytes in vitro (stress fibers, cortical actin, cell blebbing, synaptopodin); format: cell-based
Method: Human podocyte cells bearing a transgene for the thermosensitive (ts58A) variant of the SV40 T antigen, which make them responsive to interferon-γ for proliferation, were cultured and allowed to grow to 80% confluence at 33° C. (designated as day 0). Cells were then thermoshifted to 37° C., causing inactivation of the SV40 T antigen and cessation of cell replication. Podocytes were cultured at different glucose concentrations (normal glucose: 5 mM [NG]; high glucose: 30 mM [HG]) for 5 days. Mannitol was used as an osmotic control for high glucose (mannitol 20 mM+glucose 10 mM) (FIGS. 10A and 10B).
Podocytes were grown on round glass coverslips (VWR, Radnor, PA) were fixed with paraformaldehyde and then permeabilized with 0.3% Triton X-100 (Fisher Scientific, Waltham, MA). Cells were incubated with rhodamine phalloidin (Invitrogen, Carlsbad, CA) to label F-actin networks and visualize stress fibers. Standard fluorescent microscopy was used to assess stress fiber formation. The percentage of cells containing intact actin filaments was assessed by manual cell counting.

C[C@@H](C(=O)NS(C)(=O)=O)c1ccc(OS(=O)(=O)C(F)(F)F)cc1 [Ladarixin, R(-)-2-[(4′-trifluoromethanesulfonyloxy)phenyl] propionyl-methanesulfonamide sodium salt]
effect on type 1 diabetes (CXCR1 and CXCR2): able to block and revert type 1 diabetes in mice

CC(C)Cc1ccc([C@@H](C)C(=O)NS(C)(=O)=O)cc1 [Reparixin, R(-)-2-[(4-isobutylphenyl)propionyl]-methanesulfonamide]
mesangial expansion (kidney histopathology) (db/db mice; db/db mice at 25 weeks of age, treated vs control mice): reduced mesangial expansion
urinary albumin excretion (UAE) (db/db mice; db/db mice at 25 weeks of age, Reparixin 15 mg/kg ip twice a day for 18 weeks, p<0.01 vs Ctrl): 211.1 ± 24.4 µg/mL
urinary albumin levels over time (db/db mice; db/db mice, weeks 8, 12 and 25, Reparixin 15 mg/kg ip twice a day): remained stable over time
effect on glycemic control (db/db mice; db/db mice, Reparixin 15 mg/kg ip twice a day for 18 weeks): No effect
rescue from IL8 induced damage (loss of stress fibers; increase cortical actin; cell blebbing; loss of synaptopodin expression) (Human podocyte cells; reparixin 100 μM, IL8 100 nM, normal glucose and high glucose): able to rescue podocytes from IL8 induced damage

IL8: Interleukin-8 chemokine, ligand of CXCR1 and CXCR2, used as challenge on podocytes
stress fibers (phalloidin staining) (Human podocyte cells; IL8 100 nM, NG and HG, Ctrl vs. IL8 p<0.05): loss of stress fibers
cell morphology (Human podocyte cells; IL8 treatment, NG and HG): cell blebbing
cortical actin (Human podocyte cells; IL8 treatment, NG and HG): dose dependent increase in cortical actin
